{
  "source": "patent US10775391B2",
  "about": "“Nervous system-specific transmembrane proteasome complex that modulates neuronal signaling through extracellular signaling via brain activity peptides” (THE JOHNS HOPKINS UNIVERSITY, priority 2015, dated 2020)",
  "key": {"NMP [1]": {"target": "T1, NMP (Mus musculus, UniProt O55234+P70195+Q60692)", "T1 construct": "we purified NMPs from neuronal plasma membranes using a 20S purification matrix; endogenous in cells; host or cells: cultured neurons; detergent-extracted plasma membranes, isolated with the 20S proteasome purification kit (Enzo Life Sciences), assayed on beads", "assay": "Catalytic activity of purified NMP with fluorescent substrate SUC-LLVY-AMC", "assay_type": "biochemical", "settings": "low concentration (0.05% final), purified NMP in vitro", "procedure": "In some embodiments, proteasome purification was performed as follows. Cells were treated and then immediately put on ice before purifications were performed as previously described (Methods Mol Biol 832, 423-432, 2012). Briefly, proteasomes were purified out of neuronal cytosol and detergent-extracted neuronal plasma membranes using the 20S proteasome purification kit (Enzo Life Sciences) or the 26S proteasome purification kit (UBPBio). For western blots, samples were denatured at 65° C. for 5 minutes in SDS sample buffer, resolved by SDS PAGE, transferred to nitrocellulose, and immunoblotted. For catalytic activity assays, ⅙th of the bead volume following proteasome purification was resuspended in activity assay buffer (20 mM Tris-HCl, pH8.0, 5 mM ATP, 5 mM MgCl2, 1 mM DTT). 26S proteasomal activity was assessed by the addition of 10 μM of SUC-LLVY-AMC (Enzo Life Sciences). The contribution of 20S proteasomal activity was assessed by the comparison of 26S proteasome activity to that of total proteasome activity (26S+20S), measured by the activity of samples containing SDS at a final concentration of 0.05%."}, "NMP [2]": {"test_system": "NMP", "assay": "NMP expression by surface biotinylation, streptavidin pulldown and western blot in treated cortical neurons", "assay_type": "cell-based", "settings": "DIV12 mouse neurons, 1 μM for 12 hours", "procedure": "Surface biotin-labeling was performed as previously described (Nat Neurosci 12, 879-887 2009). Whole mouse brains, cultured cells or whole animal tissue were obtained where indicated and each sample was labeled using Sulfo-NHS-LC-Biotin (ThermoFisher). Cultured cells were washed in pH 8.0 PBS (Gibco) with 1 mM CaCl2 and 2 mM MgCl2 (PBSCM) and treated with 1 mg/mL Sulfo-NHS-LC-Biotin dissolved in PBSCM for 20 minutes at 4° C. before the reaction was quenched for 10 minutes in 50 mM glycine in PBSCM. Intact tissue was quickly and manually chopped, following biotinylation for only 10 minutes at 4° C. in 0.5 mg/mL Sulfo-NHS-LC-Biotin prior to quenching the reaction.\nPrimary, human central nervous system (CNS) tissue, gestational weeks 19-21, were obtained under surgical written consent following protocols approved by the Johns Hopkins Institutional Review Board, based on its designation as biological waste. Tissue was mechanically chopped at 4° C., and immediately processed for surface biotinylation. For streptavidin pulldown experiments lysed cells were incubated with high capacity streptavidin agarose beads overnight and then washed thrice with RIPA buffer before resuspension in SDS sample buffer.\nFor western blots, samples were boiled for 5 minutes in SDS sample buffer, resolved by SDS PAGE, transferred to nitrocellulose, and immunoblotted. […]"}, "[3]": {"test_system": "GCaMP3-transfected cultured cortical neurons", "assay": "Calcium imaging of bicuculline-stimulated GCaMP3-transfected cortical neurons", "assay_type": "cell-based, mouse", "settings": "for amplitude of bicuculline-induced calcium transients: 1 μM bicuculline, biotin-epoxomicin 25 μM co-administered", "description": "Bicuculline treatment was administered as a 1 μM stimulation in calcium imaging buffer in a perfusion setup. […] Each treatment was monitored for three minutes prior to washout. […] Cells were ensured to be healthy at the end of the imaging process by stimulating with 55 mM KCl and washing out and assessing for a proper calcium signal. Quantification was done by picking multiple regions of interests in primary and secondary dendrites across multiple coverslips over different imaging days. Data was analyzed using the Time Series Analyzer V3.0 ImageJ plugin and the ROI manager. Data were pooled for all the ROIs to generate a single N value. Brains from P0-P3 mouse pups (Cre GCaMP3; Nestin-Cre ER) were dissected and plated in Neurobasal-A with B-27 supplement for two weeks. At DIV7, 4-hydroxytamoxifen (4-HT, concentration) was added to induce GCaMP expression. Neurons were imaged in a calcium-imaging buffer (130 mM NaCl, 3 mM KCl, 2.5 mM CaCl2, 0.6 mM MgCl2, 10 mM Hepes, 10 mM glucose, 1.2 mM NaHCO3 pH 7.45). Peptides were collected, filtered, and dialyzed and then lyophilized prior to resuspension in 1 mL of MilliQ water and addition onto GCaMP-encoding neurons. […] Peptides treated with Proteinase K were spun through a 10 kDa MW cutoff filter prior to addition onto neurons in order to remove Proteinase K. Random peptide mixtures contained HIV-TAT, a polybasic peptide mixture, or a crude peptide prep."}, "[4]": {"target": "T2, Neuronal Membrane Proteasome (NMP) (Mus musculus, UniProt O55234+P70195+Q60692)", "T2 construct": "we believe that the endogenous NMP is catalytically active; endogenous in cells; host or cells: primary cultured cortical neurons from C57Bl/6 mouse embryos", "assay": "Release of 35S-radiolabeled peptides (SNAPPs) from cortical neurons into media, liquid scintillation", "assay_type": "cell-based", "settings": "baseline spontaneous activity", "description": "Cortical neurons were cultured for 12-18 days in vitro. Neurons were membrane depolarized with 55 mM extracellular KCl by addition of prewarmed depolarization buffer (55 mM KCl, 0.2 mM CaCl2, 1 mM MgCl2, 10 mM HEPES pH7.5) or a mock buffer (55 mM NaCl, final) in fresh neuronal growth media as previously described (Nature 455: 1198-1204 (2008)). Labeling was done in Neurobasal growth media with B27 supplement and without methionine or cysteine (Life Technologies, special order). ^35S methionine-cysteine (EasyTag PerkinElmer) was incorporated at 55 mCi in the cys/met free growth medium. Where indicated, MG132 (25 mM, Cell Signaling) and ATPγS (1 mM, Sigma) was added during the radioactive labeling window, 15 minutes prior to stimulation and was kept in for the duration of the stimulation.\nFor any chase experiment, free radioactivity was washed out with phosphate-buffered saline and replaced with fresh neuronal growth medium. […]\nQuantification of SNAPPs was done by quantifying the amount of radioactivity in each sample by liquid scintillation (Wallac 1410). […]"}},
  "note": "Where a SMILES comes first, the peptide text is derived from it. The star is where a group is joined. Cbz = O=C(OCc1ccccc1)*",
  "data": [
    {"molecule": "CCCCCCCCCCCCOS(=O)(=O)[O-].[Na+]", "note": "[SDS, sodium-dodecyl-sulfate]", "values": [
      {"measurement": "catalytic activity of the NMP", "setting": "NMP [1]", "result": "potently stimulated"}
    ]},
    {"molecule": "Aβ1-42: Aβ1-42 peptide used to treat mouse cortical neurons as an Alzheimer's disease model", "values": [
      {"measurement": "expression of proteasome subunits in the streptavidin pulldown (NMP expression)", "setting": "NMP [2]", "result": "significant decrease"}
    ]},
    {"molecule": "biotin-epoxomicin", "values": [
      {"measurement": "amplitude of bicuculline-induced calcium transients", "setting": "[3]", "result": "strongly and rapidly attenuated"}
    ]},
    {"molecule": "CC(C)C[C@@H](C=O)NC(=O)[C@H](CC(C)C)NC(=O)[C@H](CC(C)C)NC(=O)OCc1ccccc1", "note": "[MG-132] (Cbz-Leu-Leu-Leu-aldehyde)", "values": [
      {"measurement": "peptide release under non-stimulating conditions", "setting": "[4]", "result": "inhibited"},
      {"measurement": "amplitude of bicuculline-induced calcium transients", "setting": "[3]", "result": "similar"},
      {"measurement": "neuronal activity-induced calcium signaling", "setting": "[3]; acute addition onto neurons, within seconds", "result": "suppressed"}
    ]}
  ]
}
